Measured values reported in patent publication US20040242568A1, “Dipeptidyl peptidase inhibitors” (Syrrx, Inc., priority 2003, published 2004).

Assay: Microsomal stability in rat liver microsomes
Details: Rat liver microsomes 1 mg/mL protein, 1 μM compound, 37° C., NADPH 4 mM
Procedure: Several compounds were evaluated for stability in rat liver microsomes.
The test compounds (1 μM) were incubated at 37° C. in phosphate buffer (50 mM, pH 7.4) containing rat liver microsomes (1 mg/mL protein) and NADPH (Nicotinamide Adenine Dinucleotide Phosphate, reduced form) (4 mM). The incubation mixtures were quenched with trichloroacetic acid (0.3 M) over 0, 5, 15, 30 min time-course. Quenched solutions were centrifuged and supernatants were transferred for LC/MS quantitation. The half life of a test compounds was derived from the compound stability curve over the time course.

Structure (SMILES) | T1/2 [min]
N#Cc1ccccc1Cn1c(N2CCCC(N)C2)nc2ccccc2c1=O (stereo not drawn) [Example 1, 2-[2-(3-Amino-piperidin-1-yl)-4-oxo-4H-quinazolin-3-ylmethyl]-benzonitrile] | 2.5
COc1cc2nc(N3CCCC(N)C3)n(Cc3ccccc3C#N)c(=O)c2cc1OC (stereo not drawn) [Example 2, 2-[2-(3-Amino-piperidin-1-yl)-6,7-dimethoxy-4-oxo-4H-quinazolin-3-ylmethyl]-benzonitrile] | 106.6
N#Cc1ccccc1Cn1c(N2CCCC(N)C2)nc2ccc(F)cc2c1=O (stereo not drawn) [Example 6, 2-[2-(3-Amino-piperidin-1-yl)-6-fluoro-4-oxo-4H-quinazolin-3-ylmethyl]-benzonitrile] | 31
